# Data published in the supplement of paper PMC10307832.
# Tests used:
# Assay in all cases: relative viability (nuclei count vs DMSO), 5 days (fraction); higher = more cells survive
# LK-2 = test system: LK-2
# In short: (§1)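 For relative viability, nuclei counts in treated wells were divided by those in vehicle wells. Lung cancer cell lines had been pin-tool dosed in 1536-well plates the day after seeding and cultured for 5 days, then fixed and stained in one step (final 0.05% Triton X-100, 1% formaldehyde, 1 ug/ml Hoechst) and imaged at 4×. Doses were one drug alone or a fixed anchor-drug dose plus five library-drug doses (not always all listed) in √10 steps, and values are duplicate-plate medians.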
# NCI-H460 = test system: NCI-H460
# In short: as §1
# NCI-H322M = test system: NCI-H322M
# In short: as §1
# NCI-H727 = test system: NCI-H727
# In short: as §1
# NCI-H2023 = test system: NCI-H2023
# In short: as §1
# HCC-44 = test system: HCC-44
# In short: as §1
# NCI-H1651 = test system: NCI-H1651
# In short: as §1
# EKVX = test system: EKVX
# In short: as §1
# NCI-H838 = test system: NCI-H838
# In short: as §1
# LU99A = test system: LU99A
# In short: as §1
# BEN = test system: BEN
# In short: as §1
# NCI-H358 = test system: NCI-H358
# In short: as §1
# HCC-15 = test system: HCC-15
# In short: as §1
# COR-L 105 = test system: COR-L 105
# In short: as §1
# 201T = test system: 201T
# In short: as §1
# PC-3 [JPC-3] = test system: PC-3 [JPC-3]
# In short: as §1
# SW 900 = test system: SW 900
# In short: as §1
# EMC-BAC-2 = test system: EMC-BAC-2
# In short: as §1
# NCI-H522 = test system: NCI-H522
# In short: as §1
# CAL-12T = test system: CAL-12T
# In short: as §1
# NCI-H520 = test system: NCI-H520
# In short: as §1
structure (smiles),measurement,setting,value
Cc1cn(-c2cc(NC(=O)c3ccc(C)c(Nc4nccc(-c5cccnc5)n4)c3)cc(C(F)(F)F)c2)cn1 [Nilotinib] + CC(=O)Nc1cccc(-n2c(=O)n(C3CC3)c(=O)c3c(Nc4ccc(I)cc4F)n(C)c(=O)c(C)c32)c1 [Trametinib] (partner 0.02 µM),relative viability,LK-2; first compound 0.001 µM,0.514
same,relative viability,LK-2; first compound 0.003162 µM,0.515
same,relative viability,LK-2; first compound 0.01 µM,0.687
same,relative viability,LK-2; first compound 0.03162 µM,0.46
same,relative viability,LK-2; first compound 0.1 µM,0.608
same,relative viability,NCI-H460; first compound 0.003162 µM,0.127
same,relative viability,NCI-H460; first compound 0.01 µM,0.0752
same,relative viability,NCI-H460; first compound 0.03162 µM,0.108
same,relative viability,NCI-H460; first compound 0.1 µM,0.0424
same,relative viability,NCI-H322M; first compound 0.001 µM,0.538
same,relative viability,NCI-H322M; first compound 0.003162 µM,0.524
same,relative viability,NCI-H322M; first compound 0.01 µM,0.476
same,relative viability,NCI-H322M; first compound 0.03162 µM,0.613
same,relative viability,NCI-H322M; first compound 0.1 µM,0.465
same,relative viability,NCI-H727; first compound 0.001 µM,0.405
same,relative viability,NCI-H727; first compound 0.003162 µM,0.388
same,relative viability,NCI-H727; first compound 0.01 µM,0.355
same,relative viability,NCI-H727; first compound 0.03162 µM,0.368
same,relative viability,NCI-H727; first compound 0.1 µM,0.345
same,relative viability,NCI-H2023; first compound 0.001 µM,0.485
same,relative viability,NCI-H2023; first compound 0.003162 µM,0.619
same,relative viability,NCI-H2023; first compound 0.01 µM,0.508
same,relative viability,NCI-H2023; first compound 0.03162 µM,0.329
same,relative viability,NCI-H2023; first compound 0.1 µM,0.433
same,relative viability,HCC-44; first compound 0.001 µM,0.951
same,relative viability,HCC-44; first compound 0.003162 µM,1.03
same,relative viability,HCC-44; first compound 0.01 µM,1.21
same,relative viability,HCC-44; first compound 0.1 µM,0.774
same,relative viability,NCI-H1651; first compound 0.001 µM,0.828
same,relative viability,NCI-H1651; first compound 0.003162 µM,0.916
same,relative viability,NCI-H1651; first compound 0.01 µM,0.951
same,relative viability,NCI-H1651; first compound 0.03162 µM,0.761
same,relative viability,NCI-H1651; first compound 0.1 µM,0.851
same,relative viability,EKVX; first compound 0.001 µM,0.336
same,relative viability,EKVX; first compound 0.003162 µM,0.351
same,relative viability,EKVX; first compound 0.01 µM,0.352
same,relative viability,EKVX; first compound 0.03162 µM,0.355
same,relative viability,EKVX; first compound 0.1 µM,0.734
same,relative viability,NCI-H838; first compound 0.001 µM,0.462
same,relative viability,NCI-H838; first compound 0.003162 µM,0.617
same,relative viability,NCI-H838; first compound 0.01 µM,0.567
same,relative viability,NCI-H838; first compound 0.03162 µM,0.339
same,relative viability,NCI-H838; first compound 0.1 µM,0.494
same,relative viability,LU99A; first compound 0.001 µM,0.31
same,relative viability,LU99A; first compound 0.003162 µM,0.328
same,relative viability,LU99A; first compound 0.01 µM,0.332
same,relative viability,LU99A; first compound 0.03162 µM,0.296
same,relative viability,LU99A; first compound 0.1 µM,0.242
same,relative viability,BEN; first compound 0.001 µM,0.98
same,relative viability,BEN; first compound 0.003162 µM,0.931
same,relative viability,BEN; first compound 0.01 µM,1.01
same,relative viability,BEN; first compound 0.03162 µM,0.954
same,relative viability,BEN; first compound 0.1 µM,1.15
same,relative viability,NCI-H358; first compound 0.001 µM,0.134
same,relative viability,NCI-H358; first compound 0.003162 µM,0.143
same,relative viability,NCI-H358; first compound 0.01 µM,0.13
same,relative viability,NCI-H358; first compound 0.03162 µM,0.116
same,relative viability,NCI-H358; first compound 0.1 µM,0.128
same,relative viability,HCC-15; first compound 0.001 µM,0.375
same,relative viability,HCC-15; first compound 0.003162 µM,0.357
same,relative viability,HCC-15; first compound 0.01 µM,0.369
same,relative viability,HCC-15; first compound 0.03162 µM,0.284
same,relative viability,HCC-15; first compound 0.1 µM,0.233
same,relative viability,COR-L 105; first compound 0.001 µM,0.439
same,relative viability,COR-L 105; first compound 0.003162 µM,0.475
same,relative viability,COR-L 105; first compound 0.01 µM,0.533
same,relative viability,COR-L 105; first compound 0.03162 µM,0.396
same,relative viability,COR-L 105; first compound 0.1 µM,0.443
same,relative viability,201T; first compound 0.001 µM,0.709
same,relative viability,201T; first compound 0.003162 µM,0.749
same,relative viability,201T; first compound 0.01 µM,0.739
same,relative viability,201T; first compound 0.03162 µM,0.717
same,relative viability,201T; first compound 0.1 µM,0.728
same,relative viability,PC-3 [JPC-3]; first compound 0.001 µM,0.847
same,relative viability,PC-3 [JPC-3]; first compound 0.01 µM,0.7
same,relative viability,PC-3 [JPC-3]; first compound 0.03162 µM,0.523
same,relative viability,PC-3 [JPC-3]; first compound 0.1 µM,0.591
same,relative viability,SW 900; first compound 0.003162 µM,0.973
same,relative viability,SW 900; first compound 0.03162 µM,0.76
same,relative viability,SW 900; first compound 0.1 µM,0.613
same,relative viability,EMC-BAC-2; first compound 0.001 µM,0.874
same,relative viability,EMC-BAC-2; first compound 0.003162 µM,0.697
same,relative viability,EMC-BAC-2; first compound 0.01 µM,0.849
same,relative viability,EMC-BAC-2; first compound 0.03162 µM,0.604
same,relative viability,EMC-BAC-2; first compound 0.1 µM,0.65
same,relative viability,NCI-H522; first compound 0.01 µM,0.627
same,relative viability,NCI-H522; first compound 0.03162 µM,0.671
same,relative viability,NCI-H522; first compound 0.1 µM,0.596
same,relative viability,CAL-12T; first compound 0.001 µM,0.289
same,relative viability,CAL-12T; first compound 0.003162 µM,0.34
same,relative viability,CAL-12T; first compound 0.01 µM,0.261
same,relative viability,CAL-12T; first compound 0.03162 µM,0.283
same,relative viability,CAL-12T; first compound 0.1 µM,0.249
same,relative viability,NCI-H520; first compound 0.001 µM,0.612
same,relative viability,NCI-H520; first compound 0.003162 µM,0.747
same,relative viability,NCI-H520; first compound 0.01 µM,0.738
same,relative viability,NCI-H520; first compound 0.03162 µM,0.392
same,relative viability,NCI-H520; first compound 0.1 µM,0.39
